The source of these data is patent US8877754B2, “Compounds, pharmaceutical compositions and uses thereof” (Boehringer Ingelheim International GmbH, priority 2010, dated 2014).

The target of the test is T1, human ACC2 (Homo sapiens, UniProt O00763).
T1 construct: made in house; host or cells: insect cells, baculoviral expression system
T1 sequence (O00763 129-2458 limits assumed): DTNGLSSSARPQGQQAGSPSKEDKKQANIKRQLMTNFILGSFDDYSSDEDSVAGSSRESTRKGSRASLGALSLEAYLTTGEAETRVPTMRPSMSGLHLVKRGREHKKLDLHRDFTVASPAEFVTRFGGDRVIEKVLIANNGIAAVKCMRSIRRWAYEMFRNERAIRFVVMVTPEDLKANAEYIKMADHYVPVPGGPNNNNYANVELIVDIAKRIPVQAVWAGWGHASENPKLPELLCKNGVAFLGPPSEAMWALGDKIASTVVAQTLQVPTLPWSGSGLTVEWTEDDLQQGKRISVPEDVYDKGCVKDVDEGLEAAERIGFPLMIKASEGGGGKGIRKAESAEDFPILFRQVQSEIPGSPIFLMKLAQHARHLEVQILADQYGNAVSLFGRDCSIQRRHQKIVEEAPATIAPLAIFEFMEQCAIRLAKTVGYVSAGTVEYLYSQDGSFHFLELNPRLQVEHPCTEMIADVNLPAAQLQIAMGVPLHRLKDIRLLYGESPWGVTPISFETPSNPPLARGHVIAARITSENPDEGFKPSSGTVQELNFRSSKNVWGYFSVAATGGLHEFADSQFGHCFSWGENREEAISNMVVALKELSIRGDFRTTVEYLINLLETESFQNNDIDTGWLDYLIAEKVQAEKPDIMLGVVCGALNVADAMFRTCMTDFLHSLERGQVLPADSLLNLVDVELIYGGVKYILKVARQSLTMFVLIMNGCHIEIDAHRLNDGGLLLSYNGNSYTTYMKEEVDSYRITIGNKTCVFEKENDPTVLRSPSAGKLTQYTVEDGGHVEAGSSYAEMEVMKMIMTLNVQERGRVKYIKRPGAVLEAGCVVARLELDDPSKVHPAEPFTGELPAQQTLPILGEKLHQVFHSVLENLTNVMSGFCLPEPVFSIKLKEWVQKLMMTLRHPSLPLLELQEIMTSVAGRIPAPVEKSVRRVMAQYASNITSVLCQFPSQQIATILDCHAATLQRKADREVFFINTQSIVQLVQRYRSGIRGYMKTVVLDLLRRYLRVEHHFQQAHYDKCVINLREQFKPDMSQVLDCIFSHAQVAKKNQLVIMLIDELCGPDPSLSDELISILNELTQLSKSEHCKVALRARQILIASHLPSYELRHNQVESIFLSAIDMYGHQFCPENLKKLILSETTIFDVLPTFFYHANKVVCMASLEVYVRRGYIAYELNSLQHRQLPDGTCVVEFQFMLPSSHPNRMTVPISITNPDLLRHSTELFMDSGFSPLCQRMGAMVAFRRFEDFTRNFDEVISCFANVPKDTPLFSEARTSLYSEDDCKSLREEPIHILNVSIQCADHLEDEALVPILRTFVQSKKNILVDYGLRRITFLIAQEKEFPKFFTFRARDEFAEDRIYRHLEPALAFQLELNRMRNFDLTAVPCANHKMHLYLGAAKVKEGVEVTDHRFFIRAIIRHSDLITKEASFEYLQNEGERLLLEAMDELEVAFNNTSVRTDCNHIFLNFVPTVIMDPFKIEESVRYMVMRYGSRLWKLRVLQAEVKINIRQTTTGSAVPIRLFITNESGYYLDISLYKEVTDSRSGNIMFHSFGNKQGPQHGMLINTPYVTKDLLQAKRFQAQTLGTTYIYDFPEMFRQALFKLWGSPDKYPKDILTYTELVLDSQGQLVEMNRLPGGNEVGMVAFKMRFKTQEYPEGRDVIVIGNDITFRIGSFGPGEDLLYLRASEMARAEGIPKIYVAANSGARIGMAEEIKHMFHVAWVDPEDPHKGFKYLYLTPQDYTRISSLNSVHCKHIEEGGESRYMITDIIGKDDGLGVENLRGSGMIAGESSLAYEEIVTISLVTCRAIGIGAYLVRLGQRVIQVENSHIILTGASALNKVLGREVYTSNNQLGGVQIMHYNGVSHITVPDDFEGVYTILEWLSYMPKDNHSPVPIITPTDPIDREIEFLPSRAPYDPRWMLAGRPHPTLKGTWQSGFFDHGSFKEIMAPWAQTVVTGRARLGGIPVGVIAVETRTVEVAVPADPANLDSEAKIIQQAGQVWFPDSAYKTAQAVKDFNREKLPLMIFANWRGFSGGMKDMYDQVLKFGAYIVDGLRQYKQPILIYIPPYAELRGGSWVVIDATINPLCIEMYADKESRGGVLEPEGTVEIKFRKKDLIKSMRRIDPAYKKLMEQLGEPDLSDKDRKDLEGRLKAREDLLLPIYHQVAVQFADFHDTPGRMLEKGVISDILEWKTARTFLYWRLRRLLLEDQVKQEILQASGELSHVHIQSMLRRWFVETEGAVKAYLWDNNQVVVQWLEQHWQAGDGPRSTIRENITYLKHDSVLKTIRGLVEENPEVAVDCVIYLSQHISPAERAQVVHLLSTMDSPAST
Nature of the test: ACC2 assay, spectrophotometric 384 well assay (NADH-linked, coupled lactate dehydrogenase/pyruvate kinase). The format is biochemical. The note with it: hACC2 construct lacking the 128 N-terminal amino acids; 25° C., 340 nm, 15 minutes. Here is the method: Spectrophotometric 384 Well Assay
Malonyl CoA formation by acetyl CoA carboxylases is stoichometrically linked to the consumption of ATP. ACC2 activity is measured in a NADH-linked kinetic method measuring ADP generated during the ACC reaction using a coupled lactate dehydrogenase/pyruvate kinase reaction.
For biological testing, a human ACC2 construct which lacks the 128 amino acids at the N-terminus for increased solubility (nt 385-6966 in Genbank entry AJ575592) is cloned. The protein is then expressed in insect cells using a baculoviral expression system. Protein purification is performed by anion exchange.
All compounds are dissolved in dimethyl sulfoxide (DMSO) to a concentration of 10 mM.
Assay reactions are then carried out in 384-well plates, with hACC2 in an appropriate dilution and at final assay concentrations (f.c.) of 100 mM Tris (pH 7.5), 10 mM trisodium citrate, 25 mM KHCO3, 10 mM MgCl2, 0.5 mg/mL BSA, 3.75 mM reduced L-glutathione, 15 U/mL lactate dehydrogenase, 0.5 mM phosphoenolpyruvate, 15 U/mL pyruvate kinase, compounds at different concentrations at final DMSO concentrations of 1%.
The enzymatic reaction is then started by addition of a mixture of NADH, acetyl Coenzyme A (both 200 μM f.c.) and ATP (500 uM f.c.). The decrease of the optical density (slope S) is then determined at 25° C. at a wavelength of 340 nm over 15 minutes in a spectrophotometric reader.
Each assay microtiter plate contains wells with vehicle instead of compound as controls for the non-inhibited enzyme (100% CTL; ‘HIGH’) and wells without acetyl-CoA as controls for non-specific NADH degradation (0% CTL; ‘LOW’). The slope S is used for calculation of % CTL=(S(compound)−S(‘LOW’))/(S(‘HIGH’)—S(‘LOW’))*100. Compounds will give values between 100% CTL (no inhibition) and 0% CTL (complete inhibition).
For IC50 value determination, the sample slope in the presence of the test compound after subtraction of the low controls (S(compound)−S(‘LOW’)) are used.
An IC50 value is derived from the compound slopes at different dosages after subtraction of the low controls (S(compound)−S(‘LOW’)) by non-linear regression curve fitting (equation y=(A+((B−A)/(1+((C/x)^D))))).
With `CCNC(=O)C(C)c1ccc(C#Cc2cnc(OC(C)C)nc2)cc1` (centres unmarked) [Example 3.4], the IC50 (in general, the midpoint of a concentration-inhibition curve) was determined as 460 nM.

As for `CCOc1ccc(C#Cc2ccc(C(C)C(=O)Nc3ccncc3)cc2)cc1` (centres unmarked) [Example 6.13], half-maximal inhibition (IC50) was put at 400 nM. The figure for `CCNC(=O)C(C)c1ccc(C#Cc2ccc(OC3CC3)cc2)cc1` (centres unmarked) [Example 7.49] is 60 nM.

In the case of `CCCOc1ccc(C#Cc2ccc(C(C)C(=O)NCC)cc2)c(OC)c1` (centres unmarked) [Example 7.41], the IC50 stood at 510 nM. For `CCNC(=O)C(C)c1ccc(C#Cc2cnc(OCCF)nc2)cc1` (centres unmarked) [Example 3.1, N-Ethyl-2-{4-[2-(2-fluoro-ethoxy)-pyrimidin-5-ylethynyl]-phenyl}-propionamide] the value was 8400 nM. For `CCNC(=O)C(C)c1ccc(C#Cc2ccc(OCCn3ccnc3)cc2)cc1` (centres unmarked) [Example 5.18] the value was 1900 nM; for `CCOc1ccc(C#Cc2ccc(C(C)C(=O)Nc3ccnn3C)cc2)cc1` (centres unmarked) [Example 6.10], 190 nM. The figure for `CCNC(=O)C(C)c1ccc(C#Cc2ccc(OC(CC)COC)cc2)cc1` (centres unmarked) [Example 5.16] is 1400 nM. With `CCNC(=O)C(C)c1ccc(C#Cc2ccc(OC)nc2)cc1` (centres unmarked) [Example 7.28], the IC50 came out at 2900 nM. The figure for `CCNC(=O)C(C)c1ccc(C#Cc2ccc(OC3CCCOC3)cc2)cc1` (centres unmarked) [Example 5.11] is 870 nM; for `CCOc1ccc(C#Cc2ccc(C(C)C(=O)NCc3ccn(C)n3)cc2)cc1` (centres unmarked) [Example 6.22] it is 1500 nM. For `CCNC(=O)C(C)c1ccc(C#Cc2ccc(OCCC(F)(F)F)cc2)cc1` (centres unmarked) [Example 5.14] the value was 110 nM; for `CCCOc1ccc(C#Cc2ccc(C(C)C(=O)NCC)cc2)cn1` (centres unmarked) [Example 7.47], 490 nM. The figure for `CCNC(=O)C(C)c1ccc(C#Cc2cnc(NC3CC3)nc2)cc1` (centres unmarked) [Example 2.4] is 390 nM; for `CCNC(=O)C(C)c1ccc(C#Cc2ccc3[nH]nnc3c2)cc1` (centres unmarked) [Example 7.19] it is 7700 nM. `CCOc1ccc(C#Cc2ccc(C(C)C(=O)NCC(N)=O)cc2)cc1` (centres unmarked) [Example 1.10] had an IC50 of 530 nM. For `CCNC(=O)C(C)c1ccc(C#Cc2ccc3cccnc3c2)cc1` (centres unmarked) [Example 7.8] the value was 2500 nM; for `CCOc1ccc(C#Cc2ccc(C(C)C(=O)Nc3ccccc3)cc2)cc1` (centres unmarked) [Example 1.15], 80 nM; for `CCCc1ccc(C#Cc2ccc(C(C)C(=O)NCC)cc2)cc1` (centres unmarked) [Example 7.22], 330 nM. The figure for `CCCOc1ccc(C#Cc2ccc(C(C)C(=O)NCC)cc2)c(C)c1` (centres unmarked) [Example 7.42] is 90 nM; for `CCOc1ccc(C#Cc2ccc(C(C)C(=O)NC3CC3)cc2)cc1` (centres unmarked) [Example 1.17] it is 120 nM. For `CCOc1ccc(C#Cc2ccc(C(C)C(=O)NC(C)C)cc2)cc1` (centres unmarked) [Example 1.20] the value was 13200 nM; for `CCOc1ccc(C#Cc2ccc(C(C)C(=O)Nc3cccnc3)cc2)cc1` (centres unmarked) [Example 6.14], 240 nM; for `CCNC(=O)C(C)c1ccc(C#Cc2ccc(CNC(C)=O)cc2)cc1` (centres unmarked) [Example 7.26], 25500 nM. In turn, `CCOc1ccc(C#Cc2ccc(C(C)C(=O)Nc3nncs3)cc2)cc1` (centres unmarked) [Example 6.23] returned an IC50 of 23100 nM. For `CCOc1ccc(C#Cc2ccc(C(C)C(=O)NC3CCOC3)cc2)cc1` (centres unmarked) [Example 6.9] the value was 1800 nM; for `CCCCOc1cc(C#Cc2ccc(C(C)C(=O)NCC)cc2)ccn1` (centres unmarked) [Example 7.43], 170 nM; for `CCNC(=O)C(C)c1ccc(C#Cc2ccc(OC3CCOCC3)cc2)cc1` (centres unmarked) [Example 5.2], 1800 nM.

Regarding `CCNC(=O)C(C)c1ccc(C#Cc2ccc(OCCn3cccc3)cc2)cc1` (centres unmarked) [Example 5.7], half-maximal inhibition (IC50) required 170 nM. For `CCNC(=O)C(C)c1ccc(C#Cc2ccc(OC(C)C)cc2)cc1` (centres unmarked) [Example 7.24] the value was 260 nM; for `CCNC(=O)C(C)c1ccc(C#Cc2cnc(N3CCC4(CC4)C3)nc2)cc1` (centres unmarked) [Example 2.10], 2300 nM; for `CCNC(=O)C(C)c1ccc(C#Cc2cnc(OC)nc2OC)cc1` (centres unmarked) [Example 7.5], 4400 nM.
